{"source": "paper PMC5263201", "about": "“GABAA receptor occupancy by subtype selective GABAAα2,3 modulators: PET studies in humans” (Psychopharmacology, 2016)", "key": {"[1]": {"experiment": "Safety and tolerability in the PET studies", "type": "in vivo, human", "from_the_text": "Safety and tolerability assessments included records of adverse events, vital signs (blood pressure, heart rate), Allen’s test, ECG, clinical chemistry, hematology assessments, and urinalysis."}, "[2]": {"system": "GABAA receptors (benzodiazepine binding site)", "experiment": "PET with [11C]flumazenil (HRRT): GABAA receptor occupancy", "type": "in vivo, human", "settings": "for Occupancy (%) CER: cerebellum; for Occupancy (%) CER / Occupancy (%) OC / Occupancy (%) PUT / Occupancy (%) AMG: 1 h after drug administration; for Occupancy (%) OC: occipital cortex; for Occupancy (%) PUT: putamen; for Occupancy (%) AMG: amygdala", "description": "Two separate open-label phase I PET studies were conducted in 2008–2009.\nThe initial study design included two sequential panels, with two subjects in each. The first panel was intended to obtain initial receptor occupancy values, to be used for dose selection in the second panel. […] The studies followed an adaptive design, i.e., doses and PET measurements were adjusted depending on the results of preceding measurements. […] To optimize quantification of the relationship between AZ6280 exposure and receptor occupancy, the number of subjects with the highest 40 mg dose was increased (Fig. 1).\nThe head of the subject was fixed using individual plaster helmet. A sterile physiological phosphate buffer (pH 7.4) solution containing [^11C]flumazenil was injected intravenously as a bolus during 2 s, immediately followed by flush with 10 ml saline. The injected radioactivity for [^11C]flumazenil was in the range of 330–350 MBq, (340 (9) MBq, mean, SD) in the study 1 and in the range of 317–363 MBq (335 (16) MBq) in the study 2. The specific radioactivity of the radioligand at time of injection ranged from 310 to 1465 GBq/μmol (730 (414) GBq/μmol, mean, SD) and from 464 to 1879 GBq/μmol (977 (424) GBq/μmol, mean, SD), for study 1 and study 2, respectively.\nPET examinations were performed over 63 min (HRRT; Siemens/CTI). List mode data were reconstructed using the ordinary Poisson 3D ordered subset estimation maximization algorithm, with 10 iterations and 16 subsets including modeling of the point spread function (Varrone et al. [2009]) into a 4D PET image containing 33 consecutive time frames (9 × 10 s, 2 × 15 s, 3 × 20 s, 4 × 30 s, 4 × 60 s, 4 × 180 s, 7 × 360 s) with a 3D array of 256 × 256 × 207 voxels having a size of 1.22 × 1.22 × 1.22 mm.\nThe anatomical brain regions were delineated manually on the MR images using in-house image analysis software. The regions included cortical and striatal subregions, thalamus, cerebellum, limbic regions, pons, and whole brain. The following four regions were selected in the final analysis: The occipital cortex and cerebellum were chosen because of the highest GABAA receptor binding by [^11C]flumazenil and good imaging statistics and preferential distribution of α1/α2 receptor subtypes; the amygdala was chosen because of its role in the brain circuits involved in anxiety and putamen for preferential α1/α2/α3 versus α5 receptor subtypes (Lingford-Hughes et al. [2002]; Fatemi et al. [2013]; Waldvogel and Faull [2015]). For the pons, the ROI was drawn on horizontal projection on the six central slices. […] The concentration of radioactivity in each ROI, calculated for each sequential time frame and corrected for ^11C decay, was plotted versus time (TACs).\nAn index of neuronal GABAA receptor density or binding potential (BPND) was calculated using the simplified reference tissue model (Lammertsma and Hume [1996]) and pons as a reference region. The calculated receptor occupancy (%) was then correlated to drug exposure according to the following equation:1 Occupancy=Occmax×Cav,PET/Ki,plasma+Cav,PET\nwhere Occmax is the maximal occupancy induced by drug, C av,PET is the total drug plasma concentration, and K i,plasma is the inhibition constant corresponding to the drug plasma concentration required for half-maximum receptor occupancy. Non-linear least squares curve fitting of the relationship between drug plasma concentration and receptor occupancy was performed using Matlab R2007b (http://de.mathworks.com). Regional data were fitted simultaneously to obtain a single estimate of K i,plasma and regionally different estimates of Occmax. Best fit estimate and confidence interval (95% CI) were obtained on the logarithmic scale."}, "[3]": {"settings": "VAS alertness-sedation, Modified Wilson Sedation Scale, DSST; ref NCT00681317 and NCT00681915; cited from earlier work"}, "[4]": {"system": "approximately 160 different ligand binding assays", "experiment": "Battery of approximately 160 different ligand binding assays at 10 μM", "settings": "active = ≥50% inhibition with an IC50 <1µM"}, "[5]": {"experiment": "Plasma pharmacokinetics after single oral doses in the PET studies", "type": "in vivo, human", "settings": "for C av,PET: average plasma concentration at time of PET", "description": "Venous blood samples for determination of drug plasma concentrations were collected at approximately 15 min before [^11C]flumazenil injection and at 15 and 30 min and 3, 4, 6, 8, 10, 12, 16, 24, 36, and 48 h after drug administration, including three samples during PET measurement, at 1, 1.30, and 2 h after drug administration.\nCalculations of the pharmacokinetic parameters included the maximum plasma concentration (C max), the time to the maximum plasma concentration (T max), and the average drug plasma concentration during the PET measurement (C av,PET) (division of the partial area corresponding to the start and end times of PET assessment, AUCPET, by the duration of the PET measurement). The pharmacokinetic calculations were performed using non-compartmental analysis using WinNonlin™, Pharsight Corporation."}, "[6]": {"target": "human MT1 receptor (Homo sapiens, UniProt P48039)", "sequence (P48039 whole entry)": "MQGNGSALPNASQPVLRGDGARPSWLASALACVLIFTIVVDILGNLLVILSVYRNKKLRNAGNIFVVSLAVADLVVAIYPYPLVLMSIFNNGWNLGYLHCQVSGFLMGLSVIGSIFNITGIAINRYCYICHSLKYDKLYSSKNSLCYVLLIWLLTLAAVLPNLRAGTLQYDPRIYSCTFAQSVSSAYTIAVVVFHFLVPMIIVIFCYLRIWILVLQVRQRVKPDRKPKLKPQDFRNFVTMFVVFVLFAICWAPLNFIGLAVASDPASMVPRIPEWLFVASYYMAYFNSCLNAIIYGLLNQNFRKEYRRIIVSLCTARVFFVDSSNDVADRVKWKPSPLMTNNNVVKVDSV", "experiment": "MT1 receptor GTPγS studies", "type": "biochemical"}, "[7]": {"experiment": "Brain exposure in animals", "type": "in vivo"}, "[8]": {"set-up": "method as in Chen et al. 2014, 2015", "settings": "neurophysiological test battery; ref Chen et al. 2014, 2015; cited from earlier work"}, "[9]": {"settings": "AZD7325 single oral dose 0.2 mg"}}, "note": "Values joined by “and” are separate entries in the source; they are usually repeats but may differ in a detail not shown here. Equal values may be shown once. Read-outs that look alike come from different tables or passages of the source.", "data": [{"smiles": "CCCNC(=O)c1nnc2c(-c3c(F)cccc3OC)cccc2c1N", "note": "[AZD7325]", "values": [{"measurement": "receptor occupancy at the doses/exposure at which adverse events were reported", "setting": "[1]; AZD7325 5, 20 and 30 mg, AZD6280 20 mg and above", "result": "> 70", "unit": "%"}, {"measurement": "high receptor occupancy reached without obvious sedative effects", "setting": "[1]; PET studies", "result": "> 70", "unit": "%"}, {"measurement": "CNS-related AEs", "setting": "[1]; reported by three subjects at 20 and 30 mg and in one subject both at 20 and at 5 mg", "result": "dizziness, feeling hot, anhedonia, and hypoesthesia"}, {"measurement": "calculated GABAA receptor occupancy at the highest doses", "setting": "[2]; 20–30 mg AZD7325, occipital cortex and cerebellum", "result": "over 80%"}, {"measurement": "Occupancy (%) CER", "setting": "[2]; [9]", "result": "−5% and 3%"}, {"measurement": "Occupancy (%) OC", "setting": "[2]; [9]", "result": "−8% and 0.5%"}, {"measurement": "Occupancy (%) CER", "setting": "[2]; AZD7325 single oral dose 1 mg", "result": "43% and 25%"}, {"measurement": "Occupancy (%) CER", "setting": "[2]; AZD7325 single oral dose 2 mg", "result": "45% and 60%"}, {"measurement": "Occupancy (%) OC", "setting": "[2]; AZD7325 single oral dose 2 mg", "result": "24% and 42%"}, {"measurement": "Occupancy (%) PUT", "setting": "[2]; AZD7325 single oral dose 2 mg", "result": "28% and 26%"}, {"measurement": "Occupancy (%) AMG", "setting": "[2]; AZD7325 single oral dose 5 mg", "result": "16% and 26%"}, {"measurement": "Occupancy (%) CER", "setting": "[2]; AZD7325 single oral dose 5 mg", "result": "85% and 82%"}, {"measurement": "Occupancy (%) OC", "setting": "[2]; AZD7325 single oral dose 5 mg", "result": "77% and 67%"}, {"measurement": "Occupancy (%) PUT", "setting": "[2]; AZD7325 single oral dose 5 mg", "result": "40% and 37%"}, {"measurement": "Occupancy (%) CER", "setting": "[2]; AZD7325 single oral dose 20 mg", "result": "77% and 95%"}, {"measurement": "Occupancy (%) OC", "setting": "[2]; AZD7325 single oral dose 20 mg", "result": "75% and 85%"}, {"measurement": "Occupancy (%) PUT", "setting": "[2]; AZD7325 single oral dose 20 mg", "result": "41% and 46%"}, {"measurement": "Occupancy (%) AMG", "setting": "[2]; AZD7325 single oral dose 30 mg", "result": 37, "unit": "%"}, {"measurement": "Occupancy (%) CER", "setting": "[2]; AZD7325 single oral dose 30 mg", "result": 89, "unit": "%"}, {"measurement": "Occupancy (%) OC", "setting": "[2]; AZD7325 single oral dose 30 mg", "result": 82, "unit": "%"}, {"measurement": "Occupancy (%) PUT", "setting": "[2]; AZD7325 single oral dose 30 mg", "result": 52, "unit": "%"}, {"measurement": "relationship between dose and alertness or cognitive performance", "setting": "[3]", "result": "no significant relationship"}, {"measurement": "activity in the battery of ligand binding assays", "setting": "[4]", "result": "only assays in which either compound was active were the melatonin Type 1 and Type 2 receptors"}, {"measurement": "C av,PET", "setting": "[5]; [9]", "result": "1.74 nM and 2.93 nM"}, {"measurement": "Cmax", "setting": "[5]; AZD7325 single oral dose 0.2 mg, individual subjects, read-out: C max", "result": 4.12, "unit": "nM"}, {"measurement": "T max", "setting": "[5]; AZD7325 single oral dose 1 mg, individual subjects", "result": 1.0, "unit": "h"}, {"measurement": "Cmax", "setting": "[5]; AZD7325 single oral dose 1 mg, individual subjects, read-out: C max", "result": "5.19 nM and 12.8 nM"}, {"measurement": "T max", "setting": "[5]; AZD7325 single oral dose 2 mg, individual subjects", "result": 1.1, "unit": "h"}, {"measurement": "Cmax", "setting": "[5]; AZD7325 single oral dose 2 mg, individual subjects, read-out: C max", "result": "5.19 nM and 21.4 nM"}, {"measurement": "C av,PET", "setting": "[5]; AZD7325 single oral dose 5 mg", "result": "46.28 nM and 39.22 nM"}, {"measurement": "T max", "setting": "[5]; AZD7325 single oral dose 5 mg, individual subjects", "result": 1.0, "unit": "h"}, {"measurement": "Cmax", "setting": "[5]; AZD7325 single oral dose 5 mg, individual subjects, read-out: C max", "result": 44, "unit": "nM"}, {"measurement": "Cmax", "setting": "[5]; AZD7325 single oral dose 20 mg, individual subjects, read-out: C max", "result": 302, "unit": "nM"}, {"measurement": "C av,PET", "setting": "[5]; AZD7325 single oral dose 30 mg", "result": 265.25, "unit": "nM"}, {"measurement": "Cmax", "setting": "[5]; human, plasma, oral, range over all doses and subjects, read-out: range for peak exposures, Cmax", "result": "0.81 to 109", "unit": "ng/mL"}, {"measurement": "Tmax", "setting": "[5]; human, plasma, po, 0.2 mg, AZD7325 single oral dose 0.2 mg, individual subjects", "result": 0.5, "unit": "h"}, {"measurement": "Cmax", "setting": "[5]; human, plasma, po, 0.2 mg, AZD7325 single oral dose 0.2 mg, individual subjects, read-out: C max", "result": 2.29, "unit": "nM"}, {"measurement": "Tmax", "setting": "[5]; human, plasma, po, 1 mg, AZD7325 single oral dose 1 mg, individual subjects", "result": 1.8, "unit": "h"}, {"measurement": "Tmax", "setting": "[5]; human, plasma, po, 2 mg, AZD7325 single oral dose 2 mg, individual subjects", "result": 1.3, "unit": "h"}, {"measurement": "Cmax", "setting": "[5]; human, plasma, po, 5 mg, AZD7325 single oral dose 5 mg, individual subjects, read-out: C max", "result": 50.2, "unit": "nM"}, {"measurement": "Tmax", "setting": "[5]; human, plasma, po, 20 mg, AZD7325 single oral dose 20 mg, individual subjects", "result": 3, "unit": "h"}, {"measurement": "Cmax", "setting": "[5]; human, plasma, po, 20 mg, AZD7325 single oral dose 20 mg, individual subjects, read-out: C max", "result": 213, "unit": "nM"}, {"measurement": "Tmax", "setting": "[5]; human, plasma, po, 30 mg, AZD7325 single oral dose 30 mg, individual subject", "result": 2.2, "unit": "h"}, {"measurement": "Cmax", "setting": "[5]; human, plasma, po, 30 mg, AZD7325 single oral dose 30 mg, individual subject, read-out: C max", "result": 308, "unit": "nM"}, {"measurement": "Emax", "setting": "[6]", "result": 90, "unit": "%"}, {"measurement": "brain exposure", "setting": "[7]", "result": "good brain exposure"}, {"measurement": "receptor occupancy up to which no cognitive or hypnotic side effects were observed", "setting": "[8]", "result": "up to 80%"}]}]}
